From PubChem BioAssay (NCI) come the findings set out here.

The structures appear in SMILES notation. Several values for one entry are separate records, joined by “and”; a condition that tells them apart may be missing. Equal values may be shown once.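 96-well plates; 48 h exposure; 5 concentrations. Endpoints by linear interpolation between flanking doses. Not reached: highest tested concentration assigned. GI50: concentration for 50% inhibition of growth. TGI: total growth inhibition.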 Where only a bound is given, the exact number is not on record here.

Common to all, as to experiment: inhibition of tumour cell growth, NCI panel, 48 h
For assay [1], the system named is CAKI-1 renal.
Assay [2] has as its system CCRF-CEM leukemia.
Assay [3] concerns EKVX NSCLC.
The test system of assay [4] is HCT-15 colon.
The test system of assay [5] is HS 578T breast.
The test system of assay [6] is IGROV1 ovarian.
Assay [7] concerns NCI-H226 lung.
In assay [8] the test system is RPMI-8226 leukemia.
For assay [9], the system named is RXF 393 renal.
In assay [10] the test system is UO-31 renal.

For `C/C(=N\NC(=O)c1ccncc1)c1ccc(O)cc1O`, the GI50 was 2.37 µM in [1]; 2.08 µM in assay [2]; 2.56 µM in [3]; 4.83 µM in assay [4]; 43.3 µM in assay [5]; 4.89 µM in assay [6]. The GI50 was 5.14 µM in assay [7], 31.5 µM in assay [8], 12.2 µM in assay [9] and 2.82 µM in assay [10]. Moreover, the TGI in [1] was 8 µM; in assay [2], above 100 µM; in [3], above 100 µM; in assay [4], above 100 µM; in assay [5] it was above 100 µM; in assay [6] it was 63.4 µM. In addition, the TGI was 80.9 µM in assay [7], above 100 µM in assay [8], above 100 µM in assay [9] and 20.5 µM in [10].

As for `CCCN1CCN(c2ccc3nc(-c4ccc5nc(-c6ccc(OCC)c(OCC)c6)[nH]c5c4)[nH]c3c2)CC1`, the GI50 was 1.02 µM in assay [1]; 0.394 µM in [2]; 1.4 µM in [3]; 1.87 µM in assay [4]; 1.11 µM in assay [5]; 0.475 µM in assay [6]. The GI50 in assay [7] was 0.495 µM; in assay [8], 0.387 µM; in assay [9], 0.27 µM; in [10], 1.58 µM. Further, the TGI in [1] stood at 3.28 µM; in assay [2], 3.07 µM; in [3] it was 7.72 µM; in [4] it was 10.3 µM; in [5], 3.56 µM; in [6] it was 2.42 µM. The TGI worked out at 2.06 µM in [7], 1.89 µM in assay [8], 0.83 µM in assay [9] and 3.32 µM in [10].

With `CC/C=C\C/C=C\C[C@H]1C/C=C2/C(=O)C=C[C@H]2C/C=C\CCC(=O)O1`, the GI50 in [1] was 3.13 µM; in [2] it was 2.89 µM; in [3] it was 3.81 µM; in assay [4], 2.23 µM; in [5] it was 4.85 µM; in [6] it was 3.71 µM. Besides, the GI50 in assay [7] is 2.78 µM; in [8] it was 1.29 µM; in assay [9] it was 2.28 µM; in assay [10], 2.23 µM. Besides, the TGI was 8.58 µM in assay [1]; 13 µM in assay [2]; above 14.3 µM in [3]; 6 µM in assay [4]; above 14.3 µM in assay [5]; 11.8 µM in [6]. For the same compound, the TGI was found to be 8.54 µM in assay [7], 7.45 µM in assay [8], 4.61 µM in [9] and 4.96 µM in assay [10].

As for `Cc1nn(-c2ccc(Br)cc2)c(C)c1CC(=O)c1cc(O)ccc1O`, the GI50 was 12.2 µM in [1]; 19 µM in assay [2]; 21.3 µM in assay [3]; 4.61 µM in [4]; 22.7 µM in [5]; 17.2 µM in assay [6]. In addition, the GI50 in assay [7] is 7.69 µM; in assay [8], 8.21 µM; in assay [9] it was 9.01 µM; in assay [10] it was 15.9 µM. Besides, the TGI in [1] is 27.3 µM; in [2] it was above 50 µM; in assay [3], above 50 µM; in assay [4] it was 15.8 µM; in [5], above 50 µM; in assay [6], above 50 µM. For the same compound, the TGI in [7] is 19.3 µM; in [8], above 50 µM; in assay [9], 27.8 µM; in assay [10], above 50 µM.

In the case of `CC(C)[C@@H]1CC[C@@H]2[C@@H]1[C@H](OC(=O)/C=C/c1ccccc1)[C@]1(C(C)C)C[C@@H](OC(=O)CO)[C@@]2(C)O1`, the GI50 in assay [1] was 0.133 µM; in assay [2], 6.9 µM; in assay [3], 4.34 µM; in assay [4], 4.72 µM; in assay [5], 0.00325 µM; in assay [6] it was 6.79 µM. The GI50 in [7] was 5.27 µM; in assay [8] it was 7.44 µM; in assay [9] it was 3.31 µM; in assay [10], 0.011 µM. The TGI is 6.73 µM in assay [1]; 15.2 µM in assay [2]; 8.8 µM in [3]; 10 µM in assay [4]; 0.0136 µM in assay [5]; 12.5 µM in [6]. Besides, the TGI in assay [7] amounted to 10.9 µM; in assay [8], 16.5 µM; in assay [9], 8.31 µM; in assay [10], 0.0857 µM.

On to `S=C(N/N=C(/c1ccccc1)c1ccccn1)Nc1cccc(Cl)c1`, for which the GI50 in [1] is 0.832 µM; in assay [2], below 0.001 µM; in assay [3], 0.433 µM; in assay [4], 0.142 µM; in assay [5], 0.0125 µM; in assay [6] it was 0.28 µM. Moreover, the results for the GI50 in assay [7], in [8] and in assay [10] were 0.219 µM, 0.00601 µM and 1.51 µM, respectively. In addition, the TGI in assay [1] was 8.78 µM and 6.33 µM; in [2], 0.0383 µM; in [3] it was 1.88 µM and 4.7 µM; in [4], 5.06 µM; in assay [6], 2.03 µM and 6.68 µM; in assay [7] it was 1.64 µM and 4.2 µM. Besides, the TGI is 2.51 µM and 3.86 µM in assay [9]; 3.34 µM and 4.99 µM in assay [10].

In the case of `COc1cc2c3c(n(CCCCl)c(=O)c2cc1OC)-c1ccc(C#N)cc1C3=O`, the GI50 in [1] was 10.6 µM; in assay [2] it was 3.59 µM; in [3] it was 7.99 µM; in [4], 3.31 µM; in assay [5], 3.32 µM; in [6], 3.64 µM. Also, the GI50 in assay [7] was 16.7 µM; in assay [8] it was 3.97 µM; in [9], 3.85 µM; in [10], 30.2 µM. Also, the TGI was 30.9 µM in assay [1]; above 100 µM in [2]; 67.6 µM in [3]; 20.5 µM in [4]; 21.9 µM in [5]; 23.1 µM in [6]. The TGI in [7] is 94.9 µM; in assay [8], above 100 µM; in [9], 18.1 µM; in assay [10], above 100 µM.
